Results as given in ChEMBL document CHEMBL4665640, “Structure-Activity Relationship Studies of 3- or 4-Pyridine Derivatives of DS-6930” (ACS Med Chem Lett, 2019).
Blank lines part the entries; values can stand above or below the compound they belong to.

Experiments:
[1] = Microsomal stability in monkey liver microsomes assessed as parent compound remaining after 30 mins; format: ADME, Macaca mulatta, Microsome; settings: rhesus monkey, read-out: Stabilty
[2] = Clearance in cynomolgus monkey at 1 mg/kg, iv by LC-MS/MS analysis; format: ADME, organism-based, Macaca fascicularis; settings: in vivo
[3] = Bioavailability in cynomolgus monkey at 1 mg/kg, iv by LC-MS/MS analysis; format: ADME, organism-based, Macaca fascicularis; settings: in vivo
[4] = 1-octanol/phosphate buffer distribution coefficient, log D of the compound at pH 7.4 measured after 30 mins by HPLC-LC/MS based shake flask method; format: physicochemical
[5] = Microsomal stability in human liver microsomes assessed as parent compound remaining after 30 mins; format: ADME, Microsome; settings: read-out: Stabilty
[6] = Cmax in mouse at 3 mg/kg, po by LC-MS/MS analysis; format: ADME, organism-based; parameters: route oral, dose 3 mg/kg; settings: in vivo
[7] = Microsomal stability in rat liver microsomes assessed as parent compound remaining after 30 mins; format: ADME, Microsome; settings: read-out: Stabilty
[8] = Cmax in cynomolgus monkey at 3 mg/kg, po by LC-MS/MS analysis; format: ADME, organism-based, Macaca fascicularis; parameters: route oral, dose 3 mg/kg; settings: in vivo
[9] = Tmax in cynomolgus monkey at 3 mg/kg, po by LC-MS/MS analysis; format: ADME, organism-based, Macaca fascicularis; settings: in vivo
[10] = Half life in cynomolgus monkey at 3 mg/kg, po by LC-MS/MS analysis; format: ADME, organism-based, Macaca fascicularis; settings: in vivo
[11] = AUClast in cynomolgus monkey at 3 mg/kg, po by LC-MS/MS analysis; format: ADME, organism-based, Macaca fascicularis; parameters: time 0 - last, route oral, dose 3 mg/kg; settings: in vivo
[12] = Volume of distribution at steady state in cynomolgus monkey at 1 mg/kg, iv by LC-MS/MS analysis; format: ADME, organism-based, Macaca fascicularis; settings: in vivo, read-out: Vdss
[13] = Cmax in rat at 3 mg/kg, po by LC-MS/MS analysis; format: ADME, organism-based; parameters: route oral, dose 3 mg/kg; settings: in vivo
[14] = Tmax in rat at 3 mg/kg, po by LC-MS/MS analysis; format: ADME, organism-based; settings: in vivo
[15] = Tmax in mouse at 3 mg/kg, po by LC-MS/MS analysis; format: ADME, organism-based; settings: in vivo
[16] = Half life in rat at 3 mg/kg, po by LC-MS/MS analysis; format: ADME, organism-based; settings: in vivo
[17] = Half life in mouse at 3 mg/kg, po by LC-MS/MS analysis; format: ADME, organism-based; settings: in vivo
[18] = AUClast in rat at 3 mg/kg, po by LC-MS/MS analysis; format: ADME, organism-based; parameters: route oral, time 0 - last, dose 3 mg/kg; settings: in vivo
[19] = AUClast in mouse at 3 mg/kg, po by LC-MS/MS analysis; format: ADME, organism-based; parameters: time 0 - last, route oral, dose 3 mg/kg; settings: in vivo
[20] = Bioavailability in rat at 1 mg/kg, iv by LC-MS/MS analysis; format: ADME, organism-based; settings: in vivo
[21] = Bioavailability in mouse at 1 mg/kg, iv by LC-MS/MS analysis; format: ADME, organism-based; settings: in vivo
[22] = Clearance in rat at 1 mg/kg, iv by LC-MS/MS analysis; format: ADME, organism-based; settings: in vivo
[23] = Clearance in mouse at 1 mg/kg, iv by LC-MS/MS analysis; format: ADME, organism-based; settings: in vivo
[24] = Volume of distribution at steady state in rat at 1 mg/kg, iv by LC-MS/MS analysis; format: ADME, organism-based; settings: in vivo, read-out: Vdss
[25] = Volume of distribution at steady state in mouse at 1 mg/kg, iv by LC-MS/MS analysis; format: ADME, organism-based; settings: in vivo, read-out: Vdss

remaining at 0.5 h [1]: 80%
clearance [2]: 2.06 mL/min/kg
bioavailability [3]: 89%
SMILES: Cc1cnc(Oc2ccc3nc(COc4cccc(C(=O)O)c4)n(C)c3c2)c(C)c1

logD at 0.5 h [4]: 1.3
remaining at 0.5 h [5]: 88%
SMILES: CCc1cc(Oc2ccc3nc(COc4cccc(C(=O)O)c4)n(C)c3c2)ccn1

Cmax [6]: 1290 ng/mL
logD at 0.5 h [4]: 1.6
remaining at 0.5 h [5]: 100%
remaining at 0.5 h [7]: 100%
remaining at 0.5 h [1]: 100%
Cmax [8]: 28800 ng/mL
Tmax [9]: 0.5 h
half-life [10]: 9.34 h
AUC(0-t) [11]: 128000 ng·h/mL
Vd [12]: 0.15 L/kg
clearance [2]: 0.4 mL/min/kg
bioavailability [3]: 76%
Cmax [13]: 3490 ng/mL
Tmax [14]: 2.25 h
Tmax [15]: 0.5 h
half-life [16]: 3.45 h
half-life [17]: 4.35 h
AUC(0-t) [18]: 28000 ng·h/mL
AUC(0-t) [19]: 2070 ng·h/mL
bioavailability [20]: 74%
bioavailability [21]: 21%
clearance [22]: 1.29 mL/min/kg
clearance [23]: 4.91 mL/min/kg
Vd [24]: 0.27 L/kg
Vd [25]: 0.62 L/kg
SMILES: Cc1ccc(Oc2ccc3nc(COc4cccc(C(=O)O)c4)n(C)c3c2F)c(C)n1

logD at 0.5 h [4]: 1.4
SMILES: COc1nc(C)ccc1Oc1ccc2nc(COc3cccc(C(=O)O)c3)n(C)c2c1

logD at 0.5 h [4]: 1
SMILES: Cc1cncc(Oc2ccc3nc(COc4cccc(C(=O)O)c4)n(C)c3c2)c1

logD at 0.5 h [4]: 1.8
SMILES: Cc1ccc(Oc2ccc3nc(COc4cccc(C(=O)O)c4)n(C)c3c2C)c(C)n1

logD at 0.5 h [4]: 1.7
remaining at 0.5 h [5]: 100%
SMILES: Cc1ccc(Oc2cc(C)c3nc(COc4cccc(C(=O)O)c4)n(C)c3c2)c(C)n1

logD at 0.5 h [4]: 1.6
remaining at 0.5 h [5]: 100%
SMILES: CCOc1cc(Oc2ccc(C)nc2C)cc2c1nc(COc1cccc(C(=O)O)c1)n2C

logD at 0.5 h [4]: 0.9
remaining at 0.5 h [5]: 100%
SMILES: Cc1cc(Oc2ccc3nc(COc4cccc(C(=O)O)c4)n(C)c3c2)ccn1

logD at 0.5 h [4]: 0.9
SMILES: COc1cncc(Oc2ccc3nc(COc4cccc(C(=O)O)c4)n(C)c3c2)c1

logD at 0.5 h [4]: 1.3
remaining at 0.5 h [5]: 100%
remaining at 0.5 h [7]: 100%
remaining at 0.5 h [1]: 100%
SMILES: Cc1ccc(Oc2ccc3nc(COc4cccc(C(=O)O)c4)n(C)c3c2)c(C)n1

logD at 0.5 h [4]: 1.7
remaining at 0.5 h [5]: 100%
SMILES: CCOc1cc(Oc2ccnc(OC)c2)cc2c1nc(COc1cccc(C(=O)O)c1)n2C

logD at 0.5 h [4]: 1.7
remaining at 0.5 h [5]: 100%
SMILES: COc1cc(Oc2cc(C)c3nc(COc4cccc(C(=O)O)c4)n(C)c3c2)ccn1

logD at 0.5 h [4]: 0.8
remaining at 0.5 h [5]: 87%
SMILES: Cc1ccc(Oc2ccc3nc(COc4cccc(C(=O)O)c4)n(C)c3c2)cn1

logD at 0.5 h [4]: 1.3
remaining at 0.5 h [5]: 98%
remaining at 0.5 h [7]: 100%
remaining at 0.5 h [1]: 100%
SMILES: COc1cc(Oc2ccc3nc(COc4cccc(C(=O)O)c4)n(C)c3c2)ccn1

logD at 0.5 h [4]: 1.7
remaining at 0.5 h [5]: 97%
SMILES: COc1cc(Oc2ccc3nc(COc4cccc(C(=O)O)c4)n(C)c3c2F)ccn1

logD at 0.5 h [4]: 2
remaining at 0.5 h [5]: 97%
remaining at 0.5 h [7]: 91%
remaining at 0.5 h [1]: 94%
SMILES: COc1cc(Oc2cc(OC(C)C)c3nc(COc4cccc(C(=O)O)c4)n(C)c3c2)ccn1

logD at 0.5 h [4]: 1.7
remaining at 0.5 h [5]: 96%
remaining at 0.5 h [7]: 96%
remaining at 0.5 h [1]: 85%
SMILES: COc1cc(Oc2ccc3nc(COc4cccc(C(=O)O)c4)n(C)c3c2)cc(C)n1

logD at 0.5 h [4]: 0.8
remaining at 0.5 h [5]: 100%
SMILES: Cc1ccncc1Oc1ccc2nc(COc3cccc(C(=O)O)c3)n(C)c2c1

logD at 0.5 h [4]: 1.9
remaining at 0.5 h [5]: 91%
remaining at 0.5 h [7]: 65%
remaining at 0.5 h [1]: 81%
SMILES: Cc1ccc(Oc2cc(OC(C)C)c3nc(COc4cccc(C(=O)O)c4)n(C)c3c2)c(C)n1

logD at 0.5 h [4]: 2.2
SMILES: CCCOc1cc(Oc2ccc(C)nc2C)cc2c1nc(COc1cccc(C(=O)O)c1)n2C

logD at 0.5 h [4]: 1
SMILES: Cc1cc(Oc2ccc3nc(COc4cccc(C(=O)O)c4)n(C)c3c2)cc(C)n1

logD at 0.5 h [4]: 1.2
remaining at 0.5 h [5]: 91%
remaining at 0.5 h [7]: 98%
remaining at 0.5 h [1]: 100%
Cmax [8]: 500 ng/mL
Tmax [9]: 4.5 h
half-life [10]: 7.3 h
AUC(0-t) [11]: 5120 ng·h/mL
Vd [12]: 0.35 L/kg
clearance [2]: 2.08 mL/min/kg
bioavailability [3]: 18%
SMILES: COc1cc(Oc2ccc3nc(COc4cccc(C(=O)O)c4)n(C)c3n2)cc(C)n1

logD at 0.5 h [4]: 1
remaining at 0.5 h [5]: 98%
SMILES: Cc1ncccc1Oc1ccc2nc(COc3cccc(C(=O)O)c3)n(C)c2c1

logD at 0.5 h [4]: 2
remaining at 0.5 h [5]: 100%
remaining at 0.5 h [7]: 82%
remaining at 0.5 h [1]: 98%
SMILES: COc1ncc(Oc2ccc3nc(COc4cccc(C(=O)O)c4)n(C)c3c2)cc1C

logD at 0.5 h [4]: 0.9
SMILES: COc1ncccc1Oc1ccc2nc(COc3cccc(C(=O)O)c3)n(C)c2c1

logD at 0.5 h [4]: 2
remaining at 0.5 h [5]: 96%
remaining at 0.5 h [7]: 13%
remaining at 0.5 h [1]: 84%
SMILES: Cc1cnc(Oc2cc(OC(C)C)c3nc(COc4cccc(C(=O)O)c4)n(C)c3c2)c(C)c1

logD at 0.5 h [4]: 1.8
remaining at 0.5 h [5]: 94%
SMILES: CCOc1cc(Oc2ccc3nc(COc4cccc(C(=O)O)c4)n(C)c3c2)ccn1

logD at 0.5 h [4]: 1.7
SMILES: COc1ccc(Oc2ccc3nc(COc4cccc(C(=O)O)c4)n(C)c3c2)c(C)n1

logD at 0.5 h [4]: 1.3
SMILES: COc1ccc(Oc2ccc3nc(COc4cccc(C(=O)O)c4)n(C)c3c2)cn1

logD at 0.5 h [4]: 1.1
SMILES: Cn1c(COc2cccc(C(=O)O)c2)nc2ccc(Oc3ccnc(Cl)c3)cc21

logD at 0.5 h [4]: 1.2
SMILES: COc1cc(Oc2ccc(C)nc2C)cc2c1nc(COc1cccc(C(=O)O)c1)n2C

logD at 0.5 h [4]: 0.5
remaining at 0.5 h [5]: 100%
SMILES: Cn1c(COc2cccc(C(=O)O)c2)nc2ccc(Oc3cccnc3)cc21

logD at 0.5 h [4]: 1.7
remaining at 0.5 h [5]: 100%
SMILES: CCOc1cc(Oc2ncc(C)cc2C)cc2c1nc(COc1cccc(C(=O)O)c1)n2C
